Source: patent publication US8183228B2, “Anticoagulant antithrombotic dual inhibitors comprising a biotin label” (MSD OSS B.V. Netherlands, priority 2005, dated 2012)
Structures can show the parent of a compound that is named as a salt.

Experiments:
washed human platelets = assay: Inhibition of human platelet aggregation induced by TRAP (washed platelets); format: cell-based
Protocol: This aggregation can be determined by measuring the optical density of the WPL. The in vitro test described here is used to analyze the activity of a test compound to inhibit TRAP-induced aggregation of human platelets.
Between two measurements, the plate is shaking for 40 seconds at 1,000 rpm.

[1] = test system: collagen induced platelet aggregation; assay: In vivo neutralization: collagen induced platelet aggregation (thrombocytopenia) model; conditions: guinea pig; for neutralization of the platelet inhibitory activity by avidin: avidin 10 mg/kg just prior to collagen infusion
Protocol: 4. In Vivo Neutralization of the Antithrombotic Activity
An intravascular infusion of a collagen suspension induces platelet aggregation and causes transient thrombocytopenia in rats. This test is used to evaluate the influence of a test compound on the severity of thrombocytopenia induced by collagen in rats.
In the first experiment male guinea pigs were s.c. treated with compound 10 at a dose of 75 nmol/kg or vehicle at 4 hours before collagen infusion. In a second experiment compounds 12 and 17 were s.c. administered at a dose of 100 nmol/kg at the same time-point. Male guinea pigs were anaesthetized by i.m. administration of Ketamine+Sedamun (90+10 mg/kg, respectively). After 15 minutes one of the common carotid arteries was dissected free and cannulated with a PE 50 cannula (Clay Adams). Two blood samples of 0.5 mL were collected in plastic vials containing 25 μL 0.20 M Na2EDTA solution. The cannula was then connected to a syringe containing 0.25 mg/mL collagen suspension (Hormon Chemie, Munich, West Germany, diluted with isotonic buffer of pH 2.8). This suspension was administered via an infusion of 225 μL during 30 seconds. Then the syringe was disconnected and 2 blood samples of 0.5 mL were taken at 85 and 95 seconds after the start of the collagen infusion. Then the animals were killed with euthasate after which the number of platelets per sample were counted with a Sysmex blood cell counter model KX-21. In case avidin was used, 10 mg/kg of avidin was i.v. administered at t=4 h after s.c. administration of compound 10, 12 or 17 after which collagen was infused within 5 minutes.
After counting the number of platelets in the collected blood samples the decreased number of platelets is calculated by dividing the mean platelet number of the blood samples obtained at t=85 and 95 seconds by the mean value of the blood samples obtained at t=0. The test was carried out with n=4.

[2] = test system: guinea pig platelet rich plasma; assay: Inhibition of guinea pig platelet aggregation induced by ADP (PRP); format: cell-based; conditions: for IC50: guinea pig PRP
Excerpt: 1.1 In Vitro Test for Inhibition of Guinea Pig Platelet Aggregation Induced by ADP
Addition of adenosine diphosphate (ADP) to human or guinea pig platelet rich plasma (PRP) in vitro induces platelet aggregation. This aggregation can be assessed by measuring the change in optical density (OD) of the PRP. The following in vitro test was used to evaluate the test compound for interference with the ADP-induced aggregation of guinea pigs.
Platelet rich plasma (PRP): Free-flowing blood is taken from a healthy volunteer or a guinea pig and collected in 0.1 volume sodium citrate.2H2O, 3.8% in distilled H2O (w/v). The final concentration is 0.38% sodium citrate. The citrated blood is centrifuged at 1,600 N/kg (160 g, i.e., 900 rpm in a Hettich Rotanta/AP at room temperature. After 15 minutes centrifugation is discontinued with brake turned off, and the supernatant (=PRP) is collected. A fresh solution of ADP (analytical grade), 50 μM in 0.9% NaCl in MQ water, is used immediately.
The platelets in the supernatant (PRP) are counted using a Sysmex blood cell counter and the supernatant is diluted with PPP (platelet poor plasma) to obtain a PRP containing approximately 400,000±50,000 plt/mL. PRP should stabilize at room temperature for at least 20 min but not longer than 3 h.
150 μL PRP is pipetted into a well of the microplate. 30 μL test compound in a range of concentrations (7 concentrations per compound) or vehicle is added and the microplate is placed in the Labsystems iEMS reader MF at 37° C. The optical density (OD620) is then measured at 620 nm. After shaking for 2 minutes in the reader (1,000 rpm), the OD is measured for the second time. This is to verify the stability of the platelets (absence of spontaneous platelet aggregation). Then, 20 μL of 50 μM ADP solution is added and the OD is kinetically measured every minute for 14 minutes at 620. Between two measurements, the plate is shaking for 40 seconds at 1,000 rpm. Each test compound is investigated in at least 2 experiments using PRP from different volunteers.
The mean OD at each compound concentration (including vehicle) is calculated at t=0 min and t=10 min. The percentage inhibition at each concentration is calculated using the formula: […]
The IC50 of the test compound is the concentration at which the ADP-induced platelet aggregation is reduced by 50%. For this, the percentage inhibition values are plotted against compound concentration and the IC50 is calculated using Graphpad Prism 3.0 (with variable slope).
As performed in above described protocol for ADP-induced platelet aggregation. […] Before inducing the guinea pig platelet aggregation by adding ADP, compound and avidin (from egg white, Sigma) in different concentrations were pre-incubated for 2 minutes at room temperature (FIGS. 1 and 2).

factor Xa = assay: Anti-factor Xa activity in human plasma (amidolytic, S2222); format: biochemical; conditions: against calibration curve of standard heparin
Protocol: 1.3 In Vitro Test for Determination of the Anti-Factor Xa Activity in Human Plasma
The anti-factor Xa activity of the tested compounds in human plasma were measured amidolytically with S2222 (Chromogenix, Chromogenics Ltd, Molndal, Sweden) using the method described by Teien and Lie. (Teien A N, Lie M. Evaluation of an amidolytic heparin assay method increased sensitivity by adding purified antithrombin III. Thromb. Res. 1977, 10: 399-410). The anti-Xa activity is expressed in U/μmol after comparison of the amidolytic activity with a calibration curve of standard heparin.

[3] = 75 nmol/kg s.c., + avidin 10 mg/kg i.v. at t = 4 h
[4] = 75 nmol/kg s.c., without avidin
[5] = 100 nmol/kg s.c., + avidin 10 mg/kg i.v. at t = 4 h
[6] = 100 nmol/kg s.c., without avidin

SMILES: CO[C@H]1O[C@H](COS(=O)(=O)O)[C@@H](O[C@@H]2O[C@@H](C(=O)O)[C@@H](O[C@H]3O[C@H](COS(=O)(=O)O)[C@@H](O[C@@H]4O[C@H](C(=O)O)[C@@H](O[C@H]5O[C@H](COS(=O)(=O)O)[C@@H](OCCOCCOCCOCCNC(=O)[C@H](CCCCNC(=O)CCCC[C@@H]6SC[C@@H]7NC(=O)N[C@@H]76)NC(=O)COCCOCCOCCOCCNC(=O)c6cccc(S(=O)(=O)N[C@@H](Cc7ccc(OCCCCC8CCNCC8)cc7)C(=O)O)c6)[C@H](OC)[C@H]5OC)[C@H](OC)[C@H]4OC)[C@H](OS(=O)(=O)O)[C@H]3OS(=O)(=O)O)[C@H](OC)[C@H]2OC)[C@H](OS(=O)(=O)O)[C@H]1OS(=O)(=O)O [Compound 10, sodium salt]
- IC50 (washed human platelets): 72 nM
- No. of platelets t = 0 ([1]; 75 nmol/kg s.c., 4 h before collagen, without avidin): 386 ± 31
- % inhibition ([1]; 75 nmol/kg s.c., 4 hours after administration, without avidin, sodium salt): 76 ± 4%
- % inhibition [1, 3]: 2 ± 13%
- % remaining platelets [1, 3]: 40.4 ± 7.8%
- No. of platelets t = 0 [1, 3]: 384 ± 20
- No. of platelets t = 90 sec [1, 3]: 152 ± 26
- % remaining platelets [1, 4]: 85.3 ± 2.5%
- No. of platelets t = 90 sec [1, 4]: 328 ± 18
- neutralization of the platelet inhibitory activity by avidin [1]: immediate and quantitative neutralization
- concentration at which maximal inhibition of the guinea pig platelet aggregation is achieved [2]: 450 nM
- IC50 [2]: 225 nM
- Anti-Xa U/μmol Human plasma pH 7.4 (factor Xa): 927 U/μmol

SMILES: CO[C@H]1O[C@H](COS(=O)(=O)O)[C@@H](O[C@@H]2O[C@@H](C(=O)O)[C@@H](O[C@H]3O[C@H](COS(=O)(=O)O)[C@@H](O[C@@H]4O[C@H](C(=O)O)[C@@H](O[C@H]5O[C@H](COS(=O)(=O)O)[C@@H](OCCOCCOCCOCCNC(=O)COCCOCCOCCOCCNC(=O)c6cccc(S(=O)(=O)N[C@@H](Cc7ccc(OCCCCC8CCNCC8)cc7)C(=O)O)c6)[C@H](OC)[C@H]5OC)[C@H](OC)[C@H]4OC)[C@H](OS(=O)(=O)O)[C@H]3OS(=O)(=O)O)[C@H](OC)[C@H]2OC)[C@H](OS(=O)(=O)O)[C@H]1OS(=O)(=O)O [Compound 12, sodium salt, reference compound]
- IC50 (washed human platelets): 65 nM
- % inhibition ([1]; 100 nmol/kg s.c., 4 hours after administration, without avidin, sodium salt): 70 ± 4%
- % inhibition [1, 5]: 74 ± 3%
- % remaining platelets [1, 5]: 86.5 ± 1.7%
- No. of platelets t = 0 [1, 5]: 379 ± 6
- No. of platelets t = 90 sec [1, 5]: 329 ± 11
- % remaining platelets [1, 6]: 84.5 ± 2.2%
- No. of platelets t = 0 [1, 6]: 426 ± 6
- No. of platelets t = 90 sec [1, 6]: 360 ± 7
- neutralization of the platelet inhibitory activity by avidin [1]: not
- concentration at which maximal inhibition of the guinea pig platelet aggregation is achieved [2]: 225 nM
- IC50 [2]: 127 nM
- Anti-Xa U/μmol Human plasma pH 7.4 (factor Xa): 1392 U/μmol

SMILES: CO[C@H]1O[C@H](COS(=O)(=O)O)[C@@H](O[C@@H]2O[C@@H](C(=O)O)[C@@H](O[C@H]3O[C@H](COS(=O)(=O)O)[C@@H](O[C@@H]4O[C@H](C(=O)O)[C@@H](O[C@H]5O[C@H](COS(=O)(=O)O)[C@@H](OCCOCCOCCOCCNC(=O)[C@H](CCCCNC(=O)C[C@H](NC(=O)CCCC[C@@H]6SC[C@@H]7NC(=O)N[C@@H]76)C(=O)O)NC(=O)COCCOCCOCCOCCNC(=O)c6cccc(S(=O)(=O)N[C@@H](Cc7ccc(OCCCCC8CCNCC8)cc7)C(=O)O)c6)[C@H](OC)[C@H]5OC)[C@H](OC)[C@H]4OC)[C@H](OS(=O)(=O)O)[C@H]3OS(=O)(=O)O)[C@H](OC)[C@H]2OC)[C@H](OS(=O)(=O)O)[C@H]1OS(=O)(=O)O [Compound 17, sodium salt]
- IC50 (washed human platelets): 74 nM
- % inhibition [1, 5]: −5 ± 15%
- % remaining platelets [1, 5]: 46.5 ± 7.8%
- No. of platelets t = 0 [1, 5]: 367 ± 16
- No. of platelets t = 90 sec [1, 5]: 181 ± 12
- % remaining platelets [1, 6]: 82.5 ± 2.0%
- No. of platelets t = 0 [1, 6]: 424 ± 11
- No. of platelets t = 90 sec [1, 6]: 348 ± 7
- neutralization of the platelet inhibitory activity by avidin [1]: immediate and quantitative neutralization
- IC50 [2]: 66 nM
- Anti-Xa U/μmol Human plasma pH 7.4 (factor Xa): 1411 U/μmol
